# Measurements: patent publication US5162354A, “3-halo-5-halomethyl-2-oxazolidinones and their use as microbicides” (Buckman Laboratories International, Inc., priority 1991, dated 1992)
# Legend:
# Pseudomonas aeruginosa = assay: AOAC Disinfectant Swimming Pool Assay (Pseudomonas aeruginosa); format: cell-based; conditions: 10 min, contact time 10 minutes, read-out: MIC (Minimum inhibitory concentration required to inhibit microorganisms)
# Experimental: (§1) This example was based on the procedure described in AOAC (Association of Official Analytical Chemists) Official Methods of Analysis (1986) pp 75-77. The results obtained by this method are suitable for presumptive evidence of acceptability of products for disinfecting swimming pool water. The results obtained for Compound 1 in a contact time of 10 minutes are noted in Table IV.
# Klebsiella pneumonia = assay: AOAC Disinfectant Swimming Pool Assay (Klebsiella pneumonia); format: cell-based; conditions: Klebsiella pneumoniae, 10 min, read-out: MIC (Minimum inhibitory concentration required to inhibit microorganisms)
# Experimental: as §1
smiles,measurement,setting,value
"O=C1OC(CCl)CN1Br (centres unmarked) [Compound 1, 3-Bromo-5-chloromethyl-2-oxazolidinone]",MIC,Pseudomonas aeruginosa,100 µg/mL
same,MIC,Klebsiella pneumonia,100 µg/mL
